Data: patent US12419848B2, “Treatment of hyperinflammatory syndrome” (priority 2020, dated 2025)
Counter-ions that a name gives are not always drawn.

How the values were obtained:
P2X7R = target: T1, P2X7R (Homo sapiens, UniProt Q99572); set-up: endogenous in cells; host or cells: human subjects (clinical trials reported elsewhere); conditions: administered orally; cited from earlier work
T1 sequence (Q99572 1-595): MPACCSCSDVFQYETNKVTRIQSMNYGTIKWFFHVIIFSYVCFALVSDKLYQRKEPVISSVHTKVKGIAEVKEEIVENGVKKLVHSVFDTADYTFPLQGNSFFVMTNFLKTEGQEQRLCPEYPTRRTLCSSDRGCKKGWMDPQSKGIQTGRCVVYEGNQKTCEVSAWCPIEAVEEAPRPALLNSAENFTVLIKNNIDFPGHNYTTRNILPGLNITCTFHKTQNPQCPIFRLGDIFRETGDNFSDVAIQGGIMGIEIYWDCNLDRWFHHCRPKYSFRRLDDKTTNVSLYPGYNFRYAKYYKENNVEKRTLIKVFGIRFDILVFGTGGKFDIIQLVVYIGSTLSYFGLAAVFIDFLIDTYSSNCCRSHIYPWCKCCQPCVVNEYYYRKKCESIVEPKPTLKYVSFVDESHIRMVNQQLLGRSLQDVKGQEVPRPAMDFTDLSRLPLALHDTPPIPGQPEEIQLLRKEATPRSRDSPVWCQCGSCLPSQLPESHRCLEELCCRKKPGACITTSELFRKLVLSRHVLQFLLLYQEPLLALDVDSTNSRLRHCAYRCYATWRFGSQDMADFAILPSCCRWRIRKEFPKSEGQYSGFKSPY

[1] = system: posttraumatic epileptic seizures; assay: Example 21: posttraumatic epileptic seizures; format: in vivo, human
[2] = system: psoriatic arthritis, herpes zoster infection; assay: Example 11: psoriatic arthritis with herpes zoster
[3] = system: chronic interstitial cystitis; assay: Example 13: chronic interstitial cystitis; format: in vivo, human; conditions: for effect on symptoms (prior treatment): in vivo
[4] = system: idiopathic Parkinson's disease
acute lumbago = assay: Example 32: acute lumbago; format: in vivo, human; conditions: sublingual 4×100 mg/d, after 30 minutes
Alzheimer's disease = assay: Example 19: Alzheimer's dementia; format: in vivo, human; conditions: sublingual 4×100 mg/d, after 3 months; before 15
SLE peritonitis = assay: Example 33: systemic lupus erythematosus; format: in vivo, human
[5] = system: inflammatory bowel disease with perianal fistulae; assay: Example 28: inflammatory bowel disease with perianal fistulae; format: in vivo; conditions: dog, 4×100 mg/d applied into the largest fistula, after 1 week
ischaemic cardiomyopathy = assay: Example 31: ischaemic cardiomyopathy; format: in vivo, human
ulcerative colitis = assay: Example 27: ulcerative colitis; format: in vivo, human
diabetic polyneuropathy = assay: Example 23: diabetic polyneuropathy; format: in vivo, human
COPD = assay: Example 25: COPD; format: in vivo, human; conditions: sublingual 4×100 mg/d, after 3 months; before 60%
myasthenia gravis = assay: Example 24: myasthenia gravis; format: in vivo, human
Protocol: A person was diagnosed having myasthenia gravis. They suffered from muscle weakness of the arms and hand after physical activity. The diagnosis was confirmed with EMG and positive test for antibodies against acetylcholine receptor (AChR). They were treated with oral anticholinesterase drug (mestinon) 4×60 mg/d. […] The treatment was continued for 2 weeks.

COVID-19 [6] = assay: Example 7: COVID-19 case; format: in vivo, human
Description: On Mar. 24, 2020, a person developed cough, dyspnoea, myalgia, pain in hip and groin, shivers but no fever. A COVID-19 test was not performed. This occurred one week after closely working together with a colleague who developed proven severe COVID-19 requiring hospital admission.
On Jul. 12, 2020, (day 1) the patient developed new symptoms comprising shivers, joint pain (knees, hips, shoulders) and conjunctivitis of the left eye. They reported sick at work. The infection probably occurred on Jul. 1, 2020. On that day they met many people during their work at the office and in the evening they went for a drink in a bar with a few colleagues. The infection occurred despite social distancing and hand sanitising. At that time no one wore a face mask. […] On July 21 (day 10), 2020, the IgA antibody test for COVID-19 result was positive.
A few hours later a clinical deterioration occurred with extreme fatigue, chest pain and pain in the right upper arm. The treatment was converted to transdermal lidocaine cream. […] As much as 400 mg cream is applied over the skin and covered by Tegaderm transparent wound dressing. […] But after 6 hours the infusion rate was increased to 63 mg/hour (1 mg/kg/hr) due to persistent symptoms.
Day 85, after almost 3 weeks with no symptoms other than a fluctuating pain in the upper arm, the prickling sensations of the lung returned. SpO2 96%, HR 90/min, BP 95/68 mm Hg, temperature […]. […] Inhalation of the lidocaine solution was avoided.

COVID-19 [7] = format: in vivo
ALS = assay: Example 18: amyotrophic lateral sclerosis; format: in vivo, human
[8] = system: renal function impairment; assay: Example 16: advanced cervix carcinoma and renal dysfunction; format: in vivo, human; conditions: continuous subdermal 1 mg/kg/hr
[9] = Examples 1-6: safety (ECG, metHb, confusion); conditions: for Blood metHb: within the normal range
terminal cancer patients = assay: Example 17: diverse cancer, palliative; format: in vivo, human; conditions: for time to relief of pain, nausea and/or extreme fatigue: continuous subcutaneous 1 mg/kg/hr; for SIP68: 10 patients, before treatment 48 (range 18-68)
rheumatoid arthritis = assay: Example 30: rheumatoid arthritis; set-up: species or system human; conditions: in vivo
[10] = sublingual 4×100 mg/d, after 1 month

Compound: O=C(NCC12CC3CC(CC(C3)C1)C2)c1cc(CCCNCCCO)ccc1Cl [AZD9056]
- outcome of oral administration (P2X7R): without great success

Compound: COC[C@H](O)Cn1c(=O)cnn(-c2ccc(Cl)c(C(=O)NCC3(O)CCCCCC3)c2)c1=O [CE-224,535 500]
- outcome of oral administration (P2X7R): without great success

Compound: CCN(CC)CC(=O)Nc1c(C)cccc1C [Lidocaine hydrochloride]
- EEG epileptic activity of the brain ([1]; subdermal 1 mg/kg/hour): had disappeared
- time to disappearance of seizures ([1]; subdermal 1 mg/kg/hour, 20 mg/ml solution): ≤ 30 min

Compound: CN1CC[C@]23c4c5ccc(O)c4O[C@H]2[C@@H](O)C=C[C@H]3[C@H]1C5 [Morphine]
- effect on herpes zoster pain ([2]; before lidocaine treatment): did not subside the pain
- side effect ([2]; in vivo): developed obstipation

Compound: COc1ccc2c3c1O[C@H]1C(=O)CC[C@@]4(O)[C@@H](C2)N(C)CC[C@]314 [Oxycodone]
- effect on symptoms (prior treatment) [3]: had no effect on their symptoms

Compound: CN1C(=O)CN=C(c2ccccc2)c2cc(Cl)ccc21 [diazepam]
- effect on generalised epileptic seizures ([1]; repeated 10 mg intravenous): had no effect

Compound: N[C@@H](Cc1ccc(O)c(O)c1)C(=O)O [levodopa]
- side effect after increasing dosage ([4]; in vivo): levodopa-induced chorea
- symptoms (prior treatment) ([4]; initially, symptoms returned after 6 years): the symptoms improved clearly

Compound: CCN(CC)CC(=O)Nc1c(C)cccc1C [lidocaine base, lidocaine]
- symptoms disappeared (acute lumbago): 95%
- MMSE Test total score (Alzheimer's disease): 23
- abdominal distension (SLE peritonitis; after 2 weeks): disappeared completely
- clinical symptoms (SLE peritonitis; sublingual 4×100 mg/d): disappeared in the course of 6 days
- oozing opaque fluid secretion and bad odour [5]: had disappeared
- chest pain episodes (ischaemic cardiomyopathy; after 3 weeks): significantly diminished
- cardiac ejection fraction (transthoracic echocardiographic) (ischaemic cardiomyopathy; sublingual 4×100 mg/d, after 3 months, before 31%): 42%
- tendency to fall [4, 10]: gradually improved
- tremor [4, 10]: almost disappeared
- symptoms (ulcerative colitis; sublingual 4×100 mg/d, after 3 days): completely disappeared
- muscle strength of hands (diabetic polyneuropathy; after 3 months): improved significantly
- tingling feelings in hands and feet (diabetic polyneuropathy; sublingual 4×100 mg/d, after a few days): disappeared completely
- FEV1 (COPD): 84%
- influenza A viral infection symptoms (myasthenia gravis; sublingual 4×100 mg/d): disappeared almost completely
- time to significant improvement of muscle weakness of arms and hand (myasthenia gravis; sublingual 4×100 mg/d): ≤ 4 h

Compound: CCN(CC)CC(=O)Nc1c(C)cccc1C [lidocaine]
- symptoms (COVID-19 [6]; continuous subdermal 0.5 mg/kg/hr, after a few hours (March 2020)): practically free of symptoms
- symptoms (COVID-19 [6]; day 11, infusion 24 hours per day): improved gradually
- symptoms (COVID-19 [6]; day 12-13, subdermal 0.63 mg/kg/hr plus amoxicilline): improved significantly
- clinical improvement (COVID-19 [6]; day 18, subdermal 40 mg/hour, after 1 hour): clinical improvement was noticeable
- symptoms (COVID-19 [6]; day 18, subdermal 63 mg/hour (1 mg/kg/hr)): the symptoms disappeared with the exception of the pain in the upper arm
- symptoms (COVID-19 [6]; day 23, lidocaine infusion): reduced the symptoms to tolerable levels
- time to improvement of symptoms (COVID-19 [6]; day 46, continuous subdermal 0.63 mg/kg/hr): ≤ 30 min
- symptoms (COVID-19 [6]; day 61, continuous subdermal 0.63 mg/kg/hr): the symptoms subsided
- time to disappearance of prickling sensations and oppressive feeling on chest (COVID-19 [6]; from day 85, sublingual 3×100 mg/d): 20 min
- symptoms after relapse (COVID-19 [6]; reinitiated continuous subcutaneous infusion): subsided again
- symptoms (COVID-19 [6]; subdermal 0.63 mg/kg/hr, day 1 (Jul. 12, 2020)): improved within a few hours
- clinical condition (COVID-19 [6]; subdermal infusion reinitiated Apr. 1, 2020, after a few days): the clinical condition improved
- symptoms (polymyalgia rheumatica; nocturnal continuous subdermal 0.5 mg/kg/hr, 8 hours, 2 x/week): disappeared after the first treatment
- time to disappearance of symptoms (polymyalgia rheumatica; sublingual 2×60 mg/d): ≤ 1 h
- all symptoms except dry mouth feelings and mild fatigue (COVID-19 [7]; day 8, sublingual 3×60 mg/d): disappeared completely
- runny nose, headache, neck pain and neck stiffness (COVID-19 [7]; sublingual 5×60 mg, 24 hours after initiation): disappeared
- MRC muscle strength: Upper arm abduction left (ALS; six months, sublingual 4×100 mg/d, before 4): 5
- MRC muscle strength: Foot extension left (ALS; six months, before 1): 2
- MRC muscle strength: Foot extension right (ALS; six months, before 1): 2
- MRC muscle strength: Foot flexion left (ALS; six months, before 2): 3
- MRC muscle strength: Foot flexion right (ALS; six months, before 2): 3
- MRC muscle strength: Elbow flexion left (ALS; six months, before 4): 4
- MRC muscle strength: Elbow flexion right (ALS; six months, before 4): 4
- MRC muscle strength: Knee flexion left (ALS; six months, before 4): 5
- MRC muscle strength: Knee flexion right (ALS; six months, before 4): 5
- MRC muscle strength: Upper arm abduction right (ALS; six months, before 4): 5
- muscle cramping (ALS; sublingual 4×100 mg/d, after one week): gradually disappeared
- renal function [8]: improved
- symptoms ([3]; continuous subcutaneous 1 mg/kg/hr, after 2 days): practically free of symptoms
- new ECG changes during treatment with lidocaine ([9]; Patient 1): No new ECG changes
- Blood metHb ([9]; Patient 1): 0.3-0.8%
- new ECG changes during treatment with lidocaine ([9]; Patient 2): No new ECG changes
- signs of confusion after extubation ([9]; Patient 2, day 22, on lidocaine): no signs of confusion
- Blood metHb ([9]; Patient 2): 0.1-0.6%
- new ECG changes during treatment with lidocaine ([9]; Patient 3): No new ECG changes
- signs of confusion after extubation ([9]; Patient 3, day 5): no signs of confusion
- Blood metHb ([9]; Patient 3): 0.1-0.4%
- new ECG changes during treatment with lidocaine ([9]; Patient 4): No new ECG changes
- signs of confusion after extubation ([9]; Patient 4): no signs of confusion
- Blood metHb ([9]; Patient 4): 0.1-0.3%
- new ECG changes during treatment with lidocaine ([9]; Patient 5): No new ECG changes
- signs of confusion after extubation ([9]; Patient 5, day 10): no signs of confusion
- Blood metHb ([9]; Patient 5): 0.1-0.3%
- new ECG changes during treatment with lidocaine ([9]; Patient 6): No new ECG changes
- signs of confusion after extubation ([9]; Patient 6, day 10): no signs of confusion
- Blood metHb ([9]; Patient 6): 0.1-0.3%
- time to relief of pain, nausea and/or extreme fatigue (terminal cancer patients; 7 of 10 patients): ≤ 2 h
- SIP68 (terminal cancer patients; after 3 days): 33 (range 12-58)
- SIP68 (terminal cancer patients; after 7 days): 28 (range 12-56)
- time to relief of pain, nausea and/or extreme fatigue (terminal cancer patients; remaining patients): ≤ 48 h

Compound: Nc1ccc(O)c(C(=O)O)c1 [mesalamine]
- response of symptoms in this exacerbation (ulcerative colitis; oral CR 3×400 mg/d): did not respond

Compound: CN(C)C(=O)Oc1ccc[n+](C)c1 [mestinon]
- efficacy during influenza A infection (myasthenia gravis; oral 4×60 mg/d): no longer effective

Compound: CN(Cc1cnc2nc(N)nc(N)c2n1)c1ccc(C(=O)N[C@@H](CCC(=O)O)C(=O)O)cc1 [methotrexate]
- effect on symptoms (prior treatment) (rheumatoid arthritis): did not improve the symptoms

Compound: CC(=O)Nc1ccc(O)cc1 [paracetamol]
- effect on symptoms (prior treatment) [3]: had no effect on their symptoms

Compound: tocilizumab: disease-modifying antirheumatic drug
- effect on symptoms (prior treatment) (rheumatoid arthritis): did not improve the symptoms
